Molecular target: T1, recombinant GSK3β enzyme (human GSK3β) (Homo sapiens, UniProt P49841)
T1 construct: FLAG (N); made in house; host or cells: Sf-21 insect cells, recombinant baculovirus (pFASTBAC1 / BAC-TO-BAC)
Test: Measurement of GSK3β inhibitory activity
Type: biochemical
Settings: glycogen synthase peptide substrate, Kinase Glo luminescence, read-out: IC50 (concentration of test compound needed for 50% inhibition of luminescent intensity), GSK3β inhibitory activity
From the text: Human GSK3β gene was cloned by a PCR method using a primer set:
prepared using human brain cDNA (Clontech; trade name: QUICK-Clone cDNA) as a template and in reference to the base sequence of GSK3β gene registered in GenBank under Accession Number NM_002093.
PCR was done according to the protocol attached to KOD plus DNA polymerase (Toyo Boseki Kabushiki Kaisha). The obtained PCR product was electrophoresed on agarose gel (1%), and 1.2 kb of DNA fragment including GSK3β gene was collected from the gel and then digested with restriction enzymes EcoR I and Sal I. The restriction enzyme-treated DNA was electrophoresed on agarose gel (1%). The obtained DNA fragment was collected, and ligated to the plasmid pFASTBAC1 (Invitrogen), which had been digested with restriction enzyme EcoR I and Sal I, to produce expression plasmid pFB-GSK3B. The base sequence of insertion fragment was confirmed to find that it corresponded to the objective sequence. In addition, virus stock BAC-GSK3B of recombinant Baculovirus was prepared using BAC-TO-BAC Baculovirus Expression System (Invitrogen).
Sf-21 cells (Invitrogen) were seeded on Sf-900 II SFM medium (Invitrogen)(150 ml) containing 10% fetal calf serum at 1×10^6 cells/ml, and cultured at 27° C. for 24 hr. The virus stock […] obtained above of recombinant Baculovirus was added by 150 μl to the obtained culture medium, and the cells were cultured for another 60 hr. The culture medium was centrifuged (3000 rpm, 10 min) to separate the cells, and the cells were washed once with PBS. The cells were suspended in 10 ml of cell lysis buffer (25 mM HEPES (pH 7.5), 1% Triton X, 130 mM sodium chloride, 1 mM EDTA, 1 mM Dithiothreitol, 25 mM β-glycerophosphate, Protease inhibitor Complete (Boehringer), 1 mM Sodium orthovanadate), treated 4 times using a homogenizer (POLYTRON) at 20000 rpm for 30 sec to disrupt the cells. The disrupted solution of cells was centrifuged (40000 rpm, 45 min.), and GSK3β was purified from the obtained supernatant using Anti-FLAG M2 Affinity Gel (Sigma Ltd.).
10 μl of ATP solution (2.5 μM ATP) was added to the obtained mixture, and the mixture was reacted at room temperature for 30 min. Kinase Glo Reagent (Promega) (50 μl) was added to the reaction solution to stop the reaction. After reaction at room temperature for 10 min, the luminescent intensity was measured using ARVO multilabel counter (PerkinElmer Life Sciences). The concentrations of the test compounds needed for 50% inhibition of luminescent intensity (IC50 value) were calculated by PRISM 3.0 (GraphPad Software).

T1 sequence (P49841 whole entry): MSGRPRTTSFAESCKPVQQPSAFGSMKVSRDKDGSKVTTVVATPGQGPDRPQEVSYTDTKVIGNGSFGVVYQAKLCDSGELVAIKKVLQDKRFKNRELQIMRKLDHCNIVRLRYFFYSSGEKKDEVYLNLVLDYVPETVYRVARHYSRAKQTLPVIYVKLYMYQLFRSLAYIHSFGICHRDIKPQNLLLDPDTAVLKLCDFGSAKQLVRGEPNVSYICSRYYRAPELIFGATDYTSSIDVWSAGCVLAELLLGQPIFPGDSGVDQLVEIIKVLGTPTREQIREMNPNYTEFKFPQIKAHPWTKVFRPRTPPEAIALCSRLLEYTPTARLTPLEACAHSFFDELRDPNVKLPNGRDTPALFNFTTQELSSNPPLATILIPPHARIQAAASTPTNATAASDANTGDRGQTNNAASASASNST

SMILES	IC50 [nM]
O=C(Nc1c[nH]nc1C(=O)NCc1ccco1)c1cnccn1 [compound 162]	< 100
COc1ccccc1CC(=O)Nc1c[nH]nc1C(=O)NC(C)C [compound 025]	245
N#CCCNC(=O)c1n[nH]cc1NC(=O)c1ccccn1 [Example 358, N-(3-(((2-cyanoethyl)amino)carbonyl)-1H-pyrazol-4-yl)pyridine-2-carboxamide]	< 100
O=C(Nc1c[nH]nc1C(=O)NC1CCCCC1)c1ccccn1 [Example 349, N-(3-((cyclohexylamino)carbonyl)-1H-pyrazol-4-yl)pyridine-2-carboxamide]	< 100
CCCN(CCC)S(=O)(=O)c1ccc(C(=O)Nc2c[nH]nc2C(=O)NC(C)C)cc1 [compound 033]	171
Cc1ncccc1C(=O)Nc1c[nH]nc1C(=O)NC1CCCC1 [Example 363, N-(3-((cyclopentylamino)carbonyl)-1H-pyrazol-4-yl)-2-methylnicotinamide]	< 100
O=C(CC1CCCC1)Nc1c[nH]nc1C(=O)Nc1ccccc1 [compound 081]	106
CC(=O)Nc1cccc(C(=O)Nc2c[nH]nc2C(=O)NC2CCCC2)c1 [compound 075]	< 100
O=C(Nc1c[nH]nc1C(=O)NCCc1ccccc1)c1ccc(F)cc1F [Example 134, 4-[(2,4-difluorobenzoyl)amino]-N-(2-phenylethyl)-1H-pyrazole-3-carboxamide]	< 100
CC(=O)Nc1c[nH]nc1C(=O)NC1CCCC1 [compound 059]	< 100
O=C(NCCc1ccccc1)c1n[nH]cc1NC(=O)C1CCCCC1 [Example 124, 4-[(cyclohexylcarbonyl)amino]-N-(2-phenylethyl)-1H-pyrazole-3-carboxamide]	< 100
O=C(COc1ccccc1)Nc1c[nH]nc1C(=O)Nc1ccccc1 [compound 083]	< 100
O=C(Nc1c[nH]nc1C(=O)NCCc1ccccc1)c1ccc(Oc2ccccc2)cc1 [Example 135, 4-[(4-phenoxybenzoyl)amino]-N-(2-phenylethyl)-1H-pyrazole-3-carboxamide]	< 100
O=C(Nc1c[nH]nc1C(=O)NCc1ccco1)c1ccc(OC(F)(F)F)cc1 [compound 160]	194
COc1ccc(C(=O)Nc2c[nH]nc2C(=O)NC2CCCC2)cc1 [compound 072]	< 100
CC(C)NC(=O)c1n[nH]cc1NC(=O)c1ccccc1 [compound 027]	< 100
CC(=O)Nc1cccc(C(=O)Nc2c[nH]nc2C(=O)NCCN(C)C)c1 [Example 373, 4-((3-(acetylamino)benzoyl)amino)-N-(2-(dimethylamino)ethyl)-1H-pyrazole-3-carboxamide]	< 100
CC(=O)Nc1cccc(C(=O)Nc2c[nH]nc2C(=O)NCC(=O)c2ccccc2)c1 [Example 374, 4-((3-(acetylamino)benzoyl)amino)-N-(2-oxo-2-phenylethyl)-1H-pyrazole-3-carboxamide]	< 100
O=C(Nc1c[nH]nc1C(=O)NCCc1ccccc1)c1cnccn1 [Example 141]	< 100
O=C(COc1ccccc1)Nc1c[nH]nc1C(=O)NC1CCCC1 [compound 062]	< 100
O=C(NC1CCCC1)c1n[nH]cc1NC(=O)C1CCCCC1 [compound 063]	< 100
CC(=O)Nc1cccc(C(=O)Nc2c[nH]nc2C(=O)NCCSc2ccccc2)c1 [Example 376, 4-((3-(acetylamino)benzoyl)amino)-N-(2-(phenylthio)ethyl)-1H-pyrazole-3-carboxamide]	< 100

SMILES	IC50 [nM]
CCCN(CCC)S(=O)(=O)c1ccc(C(=O)Nc2c[nH]nc2C(=O)NCCc2ccccc2)cc1 [Example 136, 4-({4-[(dipropylamino)sulfonyl]benzoyl}amino)-N-(2-phenylethyl)-1H-pyrazole-3-carboxamide]	485
CC(C)NC(=O)c1n[nH]cc1NC(=O)Cc1ccc(-c2ccccc2)cc1 [compound 022]	233
COc1ccc(C(=O)Nc2c[nH]nc2C(=O)NCCc2ccccc2)cc1 [Example 133, 4-[(4-methoxybenoyl)amino]-N-(2-phenylethyl)-1H-pyrazole-3-carboxamide]	< 100
O=C(Nc1c[nH]nc1C(=O)NC1CCCC1)c1ccc2[nH]ccc2c1 [compound 077]	< 100
O=C(CCc1ccccc1)Nc1c[nH]nc1C(=O)NCc1ccccc1 [Example 106, N-benyzl-4-[(3-phenylpropanoyl)amino]-1H-pyrazole-3-carboxamide]	242
CCOCC(=O)Nc1c[nH]nc1C(=O)Nc1ccccc1 [compound 085]	< 100
O=C(NC1CCCC1)c1n[nH]cc1NC(=O)c1c[nH]c2ccccc12 [compound 078]	< 100
CC(=O)Nc1cccc(C(=O)Nc2c[nH]nc2C(=O)NCCS(=O)(=O)c2ccc(Cl)cc2)c1 [Example 383, 4-((3-(acetylamino)benzoyl)amino)-N-(2-((4-chlorophenyl)sulfonyl)ethyl)-1H-pyrazole-3-carboxamide]	< 100
O=C(Nc1c[nH]nc1C(=O)NCc1ccco1)c1ccccc1 [compound 152]	< 100
O=C(NC1CCCC1)c1n[nH]cc1NC(=O)C1CCCC1 [Example 367, N-cyclopentyl-4-(cyclopentanecarbonylamino)-1H-pyrazole-3-carboxamide]	< 100
O=C(NCc1ccccc1)c1n[nH]cc1NC(=O)C1CCCCC1 [Example 102, N-benzyl-4-[(cyclohexylcarbonyl)amino]-1H-pyrazole-3-carboxamide]	< 100
CC(=O)Nc1cccc(C(=O)Nc2c[nH]nc2C(=O)NCCOC(C)(C)C)c1 [Example 381, 4-((3-(acetylamino)benzoyl)amino)-N-(2-tert-butoxyethyl)-1H-pyrazole-3-carboxamide]	140
O=C(Nc1c[nH]nc1C(=O)NCCSc1ccccc1)c1ccccn1 [Example 361, N-(3-(((2-(phenylthio)ethyl)amino)carbonyl)-1H-pyrazol-4-yl)pyridine-2-carboxamide]	< 100
N#CCNC(=O)c1n[nH]cc1NC(=O)c1ccccn1 [Example 395, N-(3-(((cyanomethyl)amino)carbonyl)-1H-pyrazol-4-yl)pyridine-2-carboxamide]	< 100
COc1ccccc1CC(=O)Nc1c[nH]nc1C(=O)NCCc1ccccc1 [Example 129, 4-{[(2-methoxyphenyl)acetyl]amino}-N-(2-phenylethyl)-1H-pyrazole-3-carboxamide]	157
CNC(=O)c1n[nH]cc1NC(=O)C1CCCCC1 [compound 005]	307
O=C(CCc1ccccc1)Nc1c[nH]nc1C(=O)NCCc1ccccc1 [Example 128, N-(2-phenylethyl)-4-[(3-phenylpropanoyl)amino]-1H-pyrazole-3-carboxamide]	< 100
COc1cccc(C(=O)Nc2c[nH]nc2C(=O)NCCC#N)c1 [Example 414, N-(2-cyanoethyl)-4-(3-methoxybenzoylamino)-1H-pyrazole-3-carboxamide]	< 100
O=C(Nc1c[nH]nc1C(=O)NCc1ccco1)c1ccccn1 [Example 347, N-(3-(((2-furylmethyl)amino)carbonyl)-1H-pyrazol-4-yl)pyridine-2-carboxamide]	< 100
CC(C)NC(=O)c1n[nH]cc1NC(=O)CCc1ccccc1 [compound 024]	< 100
O=C(Nc1c[nH]nc1C(=O)NCCc1cccnc1)c1ccccn1 [Example 352, N-(3-(((2-pyridin-3-ylethyl)amino)carbonyl)-1H-pyrazol-4-yl)pyridine-2-carboxamide]	< 100

Source: patent US20090156582A1, “Pyrazole Compound” (priority 2005, published 2009)
